Columns and labels:
Experiment in all cases: relative viability (nuclei count vs DMSO), 5 days (fraction); higher = more cells survive
Afatinib = compound: CN(C)C/C=C/C(=O)Nc1cc2c(Nc3ccc(F)c(Cl)c3)ncnc2cc1O[C@H]1CCOC1 [Afatinib]
Outline: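 Viability was defined as treated-well nuclei divided by vehicle-well nuclei, with the median taken over replicate plates. Cells from lung cancer lines sat overnight at 37 °C in 1536-well plates, received five √10-spaced library-drug doses by pinning on vehicle-anchored plates, and grew 5 days without medium change before one-step fixation, permeabilisation and Hoechst staining, 4× imaging and MetaXpress nuclear counts. Only plates with control CV under 25% and at least one doubling were kept.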

Afatinib + Foretinib = compound: CN(C)C/C=C/C(=O)Nc1cc2c(Nc3ccc(F)c(Cl)c3)ncnc2cc1O[C@H]1CCOC1 [Afatinib] + COc1cc2c(Oc3ccc(NC(=O)C4(C(=O)Nc5ccc(F)cc5)CC4)cc3F)ccnc2cc1OCCCN1CCOCC1 [Foretinib] (partner 0.25 µM)
Outline: (§1)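 Relative viability equals treated-well nuclei counts divided by vehicle-well nuclei counts. Counts came from 4× images of lung cancer cell lines grown in 1536-well plates for 5 days after pin-tool dosing on the day after seeding. Dosing used one drug alone or a fixed anchor-drug dose plus five library-drug doses (not always all listed) in √10 steps, and values are medians of duplicate plates.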

Afatinib + Palbociclib = compound: CN(C)C/C=C/C(=O)Nc1cc2c(Nc3ccc(F)c(Cl)c3)ncnc2cc1O[C@H]1CCOC1 [Afatinib] + CC(=O)c1c(C)c2cnc(Nc3ccc(N4CCNCC4)cn3)nc2n(C2CCCC2)c1=O [Palbociclib] (partner 0.5 µM)
Outline: as §1

Afatinib + OSI-027 = compound: CN(C)C/C=C/C(=O)Nc1cc2c(Nc3ccc(F)c(Cl)c3)ncnc2cc1O[C@H]1CCOC1 [Afatinib] + COc1cccc2cc(-c3nc([C@H]4CC[C@H](C(=O)O)CC4)n4ncnc(N)c34)[nH]c12 [OSI-027] (partner 0.5 µM)
Outline: as §1

Cell Line: NCI-H2342
- relative viability (Afatinib; 0.005 µM): 0.896
- relative viability (Afatinib; 0.01581 µM): 0.936
- relative viability (Afatinib; 0.05 µM): 0.889
- relative viability (Afatinib; 0.1581 µM): 0.826
- relative viability (Afatinib; 0.5 µM): 0.726
- relative viability (Afatinib + Foretinib; first compound 0.005 µM): 0.892
- relative viability (Afatinib + Foretinib; first compound 0.01581 µM): 0.895
- relative viability (Afatinib + Foretinib; first compound 0.05 µM): 0.856
- relative viability (Afatinib + Foretinib; first compound 0.1581 µM): 0.743
- relative viability (Afatinib + Foretinib; first compound 0.5 µM): 0.774
- relative viability (Afatinib + Palbociclib; first compound 0.005 µM): 0.528
- relative viability (Afatinib + Palbociclib; first compound 0.01581 µM): 0.497
- relative viability (Afatinib + Palbociclib; first compound 0.05 µM): 0.473
- relative viability (Afatinib + Palbociclib; first compound 0.1581 µM): 0.424
- relative viability (Afatinib + Palbociclib; first compound 0.5 µM): 0.475
- relative viability (Afatinib + OSI-027; first compound 0.005 µM): 0.669
- relative viability (Afatinib + OSI-027; first compound 0.01581 µM): 0.539
- relative viability (Afatinib + OSI-027; first compound 0.05 µM): 0.546
- relative viability (Afatinib + OSI-027; first compound 0.1581 µM): 0.558
- relative viability (Afatinib + OSI-027; first compound 0.5 µM): 0.485

Cell Line: NCI-H2347
- relative viability (Afatinib; 0.005 µM): 1.07
- relative viability (Afatinib; 0.01581 µM): 1.02
- relative viability (Afatinib; 0.05 µM): 0.976
- relative viability (Afatinib; 0.1581 µM): 0.961
- relative viability (Afatinib; 0.5 µM): 0.994
- relative viability (Afatinib + Foretinib; first compound 0.005 µM): 1.08
- relative viability (Afatinib + Foretinib; first compound 0.01581 µM): 0.842
- relative viability (Afatinib + Foretinib; first compound 0.05 µM): 1.03
- relative viability (Afatinib + Foretinib; first compound 0.1581 µM): 0.899
- relative viability (Afatinib + Foretinib; first compound 0.5 µM): 0.518
- relative viability (Afatinib + Palbociclib; first compound 0.005 µM): 0.415
- relative viability (Afatinib + Palbociclib; first compound 0.01581 µM): 0.446
- relative viability (Afatinib + Palbociclib; first compound 0.05 µM): 0.445
- relative viability (Afatinib + Palbociclib; first compound 0.1581 µM): 0.418
- relative viability (Afatinib + Palbociclib; first compound 0.5 µM): 0.432
- relative viability (Afatinib + OSI-027; first compound 0.005 µM): 0.403
- relative viability (Afatinib + OSI-027; first compound 0.01581 µM): 0.46
- relative viability (Afatinib + OSI-027; first compound 0.05 µM): 0.393
- relative viability (Afatinib + OSI-027; first compound 0.1581 µM): 0.364
- relative viability (Afatinib + OSI-027; first compound 0.5 µM): 0.373

Cell Line: NCI-H2405
- relative viability (Afatinib; 0.005 µM): 1.01
- relative viability (Afatinib; 0.01581 µM): 0.959
- relative viability (Afatinib; 0.05 µM): 1.08
- relative viability (Afatinib; 0.1581 µM): 0.957
- relative viability (Afatinib; 0.5 µM): 1.02
- relative viability (Afatinib + Foretinib; first compound 0.005 µM): 1.07
- relative viability (Afatinib + Foretinib; first compound 0.01581 µM): 1.02
- relative viability (Afatinib + Foretinib; first compound 0.05 µM): 1.05
- relative viability (Afatinib + Foretinib; first compound 0.1581 µM): 0.978
- relative viability (Afatinib + Foretinib; first compound 0.5 µM): 1.08
- relative viability (Afatinib + Palbociclib; first compound 0.005 µM): 0.555
- relative viability (Afatinib + Palbociclib; first compound 0.01581 µM): 0.562
- relative viability (Afatinib + Palbociclib; first compound 0.05 µM): 0.57
- relative viability (Afatinib + Palbociclib; first compound 0.1581 µM): 0.513
- relative viability (Afatinib + Palbociclib; first compound 0.5 µM): 0.508
- relative viability (Afatinib + OSI-027; first compound 0.005 µM): 0.65
- relative viability (Afatinib + OSI-027; first compound 0.01581 µM): 0.67
- relative viability (Afatinib + OSI-027; first compound 0.05 µM): 0.712
- relative viability (Afatinib + OSI-027; first compound 0.1581 µM): 0.603
- relative viability (Afatinib + OSI-027; first compound 0.5 µM): 0.701

Cell Line: NCI-H3122
- relative viability (Afatinib; 0.005 µM): 0.999
- relative viability (Afatinib; 0.01581 µM): 1.01
- relative viability (Afatinib; 0.05 µM): 1.01
- relative viability (Afatinib; 0.1581 µM): 0.929
- relative viability (Afatinib; 0.5 µM): 0.999
- relative viability (Afatinib + Foretinib; first compound 0.005 µM): 0.924
- relative viability (Afatinib + Foretinib; first compound 0.01581 µM): 0.982
- relative viability (Afatinib + Foretinib; first compound 0.05 µM): 0.949
- relative viability (Afatinib + Foretinib; first compound 0.1581 µM): 0.906
- relative viability (Afatinib + Foretinib; first compound 0.5 µM): 0.938
- relative viability (Afatinib + Palbociclib; first compound 0.005 µM): 0.179
- relative viability (Afatinib + Palbociclib; first compound 0.01581 µM): 0.184
- relative viability (Afatinib + Palbociclib; first compound 0.05 µM): 0.174
- relative viability (Afatinib + Palbociclib; first compound 0.1581 µM): 0.182
- relative viability (Afatinib + Palbociclib; first compound 0.5 µM): 0.187
- relative viability (Afatinib + OSI-027; first compound 0.005 µM): 1.03
- relative viability (Afatinib + OSI-027; first compound 0.01581 µM): 0.922
- relative viability (Afatinib + OSI-027; first compound 0.05 µM): 0.977
- relative viability (Afatinib + OSI-027; first compound 0.1581 µM): 0.951
- relative viability (Afatinib + OSI-027; first compound 0.5 µM): 0.881

Cell Line: PC-3 [JPC-3]
- relative viability (Afatinib; 0.005 µM): 0.553
- relative viability (Afatinib; 0.01581 µM): 0.406
- relative viability (Afatinib; 0.05 µM): 0.443
- relative viability (Afatinib; 0.1581 µM): 0.439
- relative viability (Afatinib; 0.5 µM): 0.469
- relative viability (Afatinib + Foretinib; first compound 0.005 µM): 0.472
- relative viability (Afatinib + Foretinib; first compound 0.01581 µM): 0.508
- relative viability (Afatinib + Foretinib; first compound 0.05 µM): 0.42
- relative viability (Afatinib + Foretinib; first compound 0.1581 µM): 0.388
- relative viability (Afatinib + Foretinib; first compound 0.5 µM): 0.343
- relative viability (Afatinib + Palbociclib; first compound 0.005 µM): 0.484
- relative viability (Afatinib + Palbociclib; first compound 0.01581 µM): 0.444
- relative viability (Afatinib + Palbociclib; first compound 0.05 µM): 0.441
- relative viability (Afatinib + Palbociclib; first compound 0.1581 µM): 0.362
- relative viability (Afatinib + Palbociclib; first compound 0.5 µM): 0.397
- relative viability (Afatinib + OSI-027; first compound 0.005 µM): 0.257
- relative viability (Afatinib + OSI-027; first compound 0.01581 µM): 0.271
- relative viability (Afatinib + OSI-027; first compound 0.05 µM): 0.23
- relative viability (Afatinib + OSI-027; first compound 0.1581 µM): 0.182
- relative viability (Afatinib + OSI-027; first compound 0.5 µM): 0.238
